Consider 18 compounds from patent publication US12583870B2, “Azaheteroaryl compound and application thereof” (SHANGHAI BLUERAY BIOPHARMA CO., LTD., priority 2019, dated 2026).

The structures appear in SMILES notation.

Assay [1] has as its system trimethylation level of histone H3K27 in G401 cells. In words: ELISA (H3K27 trimethylation) analysis in G401 cells. The following applies: Homo sapiens, G-401, 72 hours, H3K27me3 standardized to H3. It counts as cell-based. The gist of the method: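 Cells exposed 72 h to 10-point 3-fold dilutions, top 10 μM, 0.5% final DMSO. Acid-extracted histones assayed by ELISA (ECL) for H3K27me3, normalized to total H3 and to DMSO control; IC50 from dose-response fit.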
For orientation: ELISA stands for enzyme-linked immunosorbent assay.

For assay [2], the target named is T1, EED protein (His6-tagged full-length) binding to H3K27me3 polypeptide (Homo sapiens, UniProt O75530).
T1 construct: His6-tagged full-length EED protein (441 amino acids)
T1 sequence (O75530 whole entry): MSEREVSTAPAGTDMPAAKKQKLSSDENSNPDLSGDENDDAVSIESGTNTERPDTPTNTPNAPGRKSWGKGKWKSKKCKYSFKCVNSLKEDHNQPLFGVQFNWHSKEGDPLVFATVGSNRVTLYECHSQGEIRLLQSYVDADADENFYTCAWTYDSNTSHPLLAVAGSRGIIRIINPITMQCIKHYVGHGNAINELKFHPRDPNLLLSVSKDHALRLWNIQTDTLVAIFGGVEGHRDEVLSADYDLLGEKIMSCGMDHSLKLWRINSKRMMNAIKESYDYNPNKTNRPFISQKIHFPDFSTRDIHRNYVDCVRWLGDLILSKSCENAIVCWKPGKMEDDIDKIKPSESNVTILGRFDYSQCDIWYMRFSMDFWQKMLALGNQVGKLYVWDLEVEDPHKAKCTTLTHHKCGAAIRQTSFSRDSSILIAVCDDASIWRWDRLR
The assay can be described thus: AlphaScreen evaluation of blocking the binding of EED to H3K27Me3. The following applies: EED 60 nM, biotinylated H3K27me3 75 nM, 30 minutes incubation. Here is the method:
Firstly, compound solutions of different concentration gradients were prepared. Compound powder was dissolved in DMSO to prepare a mother liquor. 1.5 μl of the mother liquor of the compound was taken and added into 198.5 μl of a reaction buffer (25 mM HEPES (pH 8.0), 50 mM NaCl, 0.015% Tween 20, 0.5% BSA). The mixture was mixed uniformly. Then a 3-fold series dilution was carried out with the above-mentioned buffer containing 0.75% DMSO. 9 different test concentrations were provided for one same compound. 5 μL of compounds of different concentration gradients were taken and added into the ProxiPlate-384 Plus, White detection plate (PerkinElmer, 6008280) and two replicates in parallel were provided for each concentration gradient.
Secondly, a reaction for blocking the binding was carried out. The above-mentioned buffer was used to dilute His6-tagged full-length EED protein (441 amino acids) to 60 nM and biotinylated polypeptide fragment H3K27me3 (amino acids at positions 19-33) (Biotinylated-H3K27me3) to 75 nM. 5 μl of the polypeptide fragment at the concentration of 75 nM and 5 µl of the protein at the concentration of 60 nM were transferred to the detection wells containing the compound, respectively. The detection plate was sealed with the film and incubation was carried out at room temperature for 30 minutes.
Finally, the detection was carried out with the AlphaScreen method. Prior use, nickel chelate receptor beads and streptavidin donor beads (at the ratio of 1:1, Perkin Elmer, product number 6760619M) were mixed with the above-mentioned reaction buffer. Then 5 μl of the above-mentioned pre-mixed detection solution was added to each of the detection wells. The donor beads and receptor beads were both at a final concentration of 5 μg/mL. The detection plate was covered and sealed with tinfoil and placed in the dark at room temperature for 1 hour. The signal was read using the AlphaScreen detector on the Spectra max i3. AlphaScreen signals were standardlized based on the readings obtained from positive controls (maximum signal controls) and negative controls (minimum signal controls) to give the inhibition rates for compounds at different concentrations, and afterwards non-linear regression analysis was carried out using GraphPad Prism 5, inhibition curves were made based on the Dose-Response equation of Y=Bottom+(Top−Bottom)/(1+10^((Log IC50−X)*HillSlope)) and the IC50 values of each compound were obtained. […]
(In general: Bead proximity is the source of the signal in Alpha formats.)

A further assay concerns KARPAS-422 cells. In words: Cell proliferation analysis, KARPAS-422, 13 days, CellTiter-Glo. The following applies: Homo sapiens, 312 h. Format: cell-based. In a few lines:
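KARPAS-422 cells were treated with PRC2 inhibitors over 9 three-fold dilutions from 10 μM top (0.5% DMSO, duplicates) in RPMI-1640 with 15% FBS at 37 °C. Every 3–4 days cells were counted and reseeded at 1×10^4/well with fresh compound. Viability was read by CellTiter-Glo luminescence on day 13.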
On the technique in general: In ATP-based viability assays light output follows the ATP content of the culture.

By IC50 is commonly meant the concentration needed to halve the response being measured.

On to `Cc1ccc(-c2cnc(NCc3c(F)ccc4c3CCO4)n3cnnc23)c2ncc(CC(N)=O)n12` [2-(8-(5-(((5-fluoro-2,3-dihydrobenzofuran-4-yl)methyl)amino)-[1,2,4]triazolo[4,3-c]pyrimidin-8-yl)-5-methylimidazo[1,2-a]pyridin-3-yl)acetamide], for which the IC50 turned out to be 0.003 µM in assay [1], 0.0118 µM in assay [2] and 0.0032 µM with KARPAS-422 cells.

For the compound `Cc1ccc(-c2cnc(NCc3c(F)ccc4c3CCO4)n3cnnc23)c2ncc(CC(=O)O)n12` [2-(8-(5-(((5-fluoro-2,3-dihydrobenzofuran-4-yl)methyl)amino)-[1,2,4]triazolo[4,3-c]pyrimidin-8-yl)-5-methylimidazo[1,2-a]pyridin-3-yl)acetic acid], the IC50 in assay [1] worked out at 0.004 µM; in assay [2], 0.0054 µM; in the assay on KARPAS-422 cells, 0.0047 µM.

Regarding `Cc1ccc(-c2cnc(NCc3c(F)ccc4c3CCO4)n3cnnc23)c2ncc(CCO)n12` [2-(8-(5-(((5-fluoro-2,3-dihydrobenzofuran-4-yl)methyl)amino)-[1,2,4]triazolo[4,3-c]pyrimidin-8-yl)-5-methylimidazo[1,2-a]pyridin-3-yl)ethan-1-ol], the IC50 in assay [1] stood at 0.0016 µM; in assay [2], 0.0099 µM; in the assay on KARPAS-422 cells it was 0.0024 µM.

On to `CC(=O)OCCc1cnc2c(-c3cnc(NCc4c(F)ccc5c4CCO5)n4cnnc34)ccc(C)n12` [2-(8-(5-(((5-fluoro-2,3-dihydrobenzofuran-4-yl)methyl)amino)-[1,2,4]triazolo[4,3-c]pyrimidin-8-yl)-5-methylimidazo[1,2-a]pyridin-3-yl)ethyl acetate], for which the IC50 in assay [1] worked out at 0.001 µM; in assay [2] it was 0.0062 µM; with KARPAS-422 cells it was 0.0017 µM.

Consider `CC1=C(F)S(=O)(=O)c2ccc(-c3cnc(NCc4c(F)ccc5c4[C@H]4C[C@H]4O5)n4cnnc34)cc21` [2-fluoro-5-(5-((((1aR,6bR)-5-fluoro-1a,6b-dihydro-1H-cyclopropa[b]benzofuran-6-yl)methyl)amino)-[1,2,4]triazolo[4,3-c]pyrimidin-8-yl)-3-methylbenzo[b]thiophene 1,1-dioxide], for which the values for the IC50 (in assay [1]; in assay [2]; in the assay with KARPAS-422 cells) were 0.022 µM, 0.0041 µM and 0.032 µM, respectively.

Turning to `O=S1(=O)C(F)=Cc2cc(-c3cnc(NCc4c(F)ccc5c4[C@H]4C[C@H]4O5)n4cnnc34)ccc21` [2-fluoro-5-(5-((((1aR,6bR)-5-fluoro-1a,6b-dihydro-1H-cyclopropa[b]benzofuran-6-yl)methyl)amino)-[1,2,4]triazolo[4,3-c]pyrimidin-8-yl)benzo[b]thiophene 1,1-dioxide], the IC50 in assay [1] was found to be 0.16 µM; in assay [2], 0.566 µM; with KARPAS-422 cells, 0.079 µM.

In the case of `NCCC1=CS(=O)(=O)c2ccc(-c3cnc(NCc4c(F)ccc5c4[C@@H]4C[C@@H]4O5)n4cnnc34)cc21` [3-(2-aminoethyl)-5-(5-((((1aS,6bS)-5-fluoro-1a,6b-dihydro-1H-cyclopropa[b]benzofuran-6-yl)methyl)amino)-[1,2,4]triazolo[4,3-c]pyrimidin-8-yl)benzo[b]thiophene 1,1-dioxide], the values for the IC50 (in assay [1]; in assay [2]; with KARPAS-422 cells) were 0.075 µM, 0.0054 µM and 0.033 µM, respectively.

Turning to `CC1=C(F)c2cc(-c3cnc(NCc4c(F)ccc5c4CCO5)n4cnnc34)ccc2S1(=O)=O` [3-fluoro-5-(5-(((5-fluoro-2,3-dihydrobenzofuran-4-yl)methyl)amino)-[1,2,4]triazolo[4,3-c]pyrimidin-8-yl)-2-methylbenzo[b]thiophene 1,1-dioxide], the IC50 in assay [1] came out at 0.0073 µM; in assay [2], 0.0026 µM; in the assay with KARPAS-422 cells, 0.0049 µM.

As to `CC1=C(F)c2cc(-c3cnc(NCc4c(F)ccc5c4[C@H]4C[C@H]4O5)n4cnnc34)ccc2S1(=O)=O` [3-fluoro-5-(5-((((1aR,6bR)-5-fluoro-1a,6b-dihydro-1H-cyclopropa[b]benzofuran-6-yl)methyl)amino)-[1,2,4]triazolo[4,3-c]pyrimidin-8-yl)-2-methylbenzo[b]thiophene 1,1-dioxide], the IC50 in assay [1] is 0.0058 µM; in assay [2], 0.0042 µM; in the assay with KARPAS-422 cells, 0.0055 µM.

Take `O=S1(=O)C=C(F)c2cc(-c3cnc(NCc4c(F)ccc5c4[C@H]4C[C@H]4O5)n4cnnc34)ccc21` [3-fluoro-5-(5-((((1aR,6bR)-5-fluoro-1a,6b-dihydro-1H-cyclopropa[b]benzofuran-6-yl)methyl)amino)-[1,2,4]triazolo[4,3-c]pyrimidin-8-yl)benzo[b]thiophene 1,1-dioxide]: the IC50 was 0.078 µM in assay [1], 0.123 µM in assay [2] and 0.097 µM in the assay on KARPAS-422 cells.

Regarding `CC1=Cc2c(-c3cnc(NCc4c(F)ccc5c4CCO5)n4cnnc34)cccc2S1(=O)=O` [4-(5-(((5-fluoro-2,3-dihydrobenzofuran-4-yl)methyl)amino)-[1,2,4]triazolo[4,3-c]pyrimidin-8-yl)-2-methylbenzo[b]thiophene 1,1-dioxide], the IC50 in assay [1] turned out to be 0.0036 µM; in assay [2] it was 0.0122 µM; with KARPAS-422 cells it was 0.0042 µM.

Turning to `O=S1(=O)C=Cc2c(-c3cnc(NCc4c(F)ccc5c4CCO5)n4cnnc34)cccc21` [4-(5-(((5-fluoro-2,3-dihydrobenzofuran-4-yl)methyl)amino)-[1,2,4]triazolo[4,3-c]pyrimidin-8-yl)benzo[b]thiophene 1,1-dioxide], the results for the IC50 (in assay [1]; in assay [2]; with KARPAS-422 cells) were 0.021 µM, 0.01 µM and 0.013 µM, respectively.

In the case of `O=S1(=O)C=Cc2c(-c3cnc(NCc4c(F)ccc5c4[C@H]4C[C@H]4O5)n4cnnc34)cccc21` [4-(5-((((1aR,6bR)-5-fluoro-1a,6b-dihydro-1H-cyclopropa[b]benzofuran-6-yl)methyl)amino)-[1,2,4]triazolo[4,3-c]pyrimidin-8-yl)benzo[b]thiophene 1,1-dioxide], the IC50 in assay [1] worked out at 0.0092 µM; in assay [2], 0.0044 µM; in the assay with KARPAS-422 cells, 0.0115 µM.

`Cc1cc2c(cc1-c1cnc(NCc3c(F)ccc4c3CCO4)n3cnnc13)C=CS2(=O)=O` [5-(5-(((5-fluoro-2,3-dihydrobenzofuran-4-yl)methyl)amino)-[1,2,4]triazolo[4,3-c]pyrimidin-8-yl)-6-methylbenzo[b]thiophene 1,1-dioxide]: the IC50 in assay [1] was 0.0009 µM; in assay [2], 0.0041 µM; with KARPAS-422 cells it was 0.0005 µM.

For the compound `O=S1(=O)C=Cc2cc(-c3cnc(NCc4c(F)ccc5c4CCO5)n4cnnc34)ccc21` [5-(5-(((5-fluoro-2,3-dihydrobenzofuran-4-yl)methyl)amino)-[1,2,4]triazolo[4,3-c]pyrimidin-8-yl)benzo[b]thiophene 1,1-dioxide], the IC50 in assay [1] turned out to be 0.0021 µM; in assay [2], 0.0049 µM; in the assay on KARPAS-422 cells, 0.0007 µM.

`O=S1(=O)C=c2ccc(-c3cnc(NCc4c(F)ccc5c4CCO5)n4cnnc34)cc2=C1` [5-(5-(((5-fluoro-2,3-dihydrobenzofuran-4-yl)methyl)amino)-[1,2,4]triazolo[4,3-c]pyrimidin-8-yl)benzo[c]thiophene 2,2-dioxide]: the results for the IC50 (in assay [1]; in assay [2]; with KARPAS-422 cells) were 0.0003 µM, 0.0049 µM and 0.0004 µM, respectively.

For the compound `O=S1(=O)C=c2ccc(-c3cnc(NCc4c(F)ccc5c4CCCO5)n4cnnc34)cc2=C1` [5-(5-(((6-fluorochroman-5-yl)methyl)amino)-[1,2,4]triazolo[4,3-c]pyrimidin-8-yl)benzo[c]thiophene 2,2-dioxide], the IC50 in assay [1] was 0.002 µM; in assay [2], 0.0064 µM; with KARPAS-422 cells, 0.0016 µM.

As for `CC1=Cc2cc(-c3cnc(NCc4c(F)ccc5c4[C@H]4C[C@H]4O5)n4cnnc34)ccc2S1(=O)=O` [5-(5-((((1aR,6bR)-5-fluoro-1a,6b-dihydro-1H-cyclopropa[b]benzofuran-6-yl)methyl)amino)-[1,2,4]triazolo[4,3-c]pyrimidin-8-yl)-2-methylbenzo[b]thiophene 1,1-dioxide], the IC50 in assay [1] worked out at 0.0041 µM; in assay [2], 0.0049 µM; with KARPAS-422 cells, 0.0125 µM.
